What was measured:
[1] = system: A498; test: NCI in vitro cell line screen (SRB), Renal Cancer A498; type: cell-based
Experimental: (§1) For exemplary purposes, an embodiment of the present invention was tested for activity with respect to certain cancer cell lines. The following Tables show results from in vitro 60-cell line antitumor testing from the US National Cancer Institute Developmental Therapeutics Program (NCI-DTP) on compound 2. The testing was in connection with the NCI's In Vitro Cell Line Screening Project (IVCLSP). Detailed information regarding the experiments and their interpretation is available from the NCI.

[2] = system: NCI/ADR-RES; test: NCI in vitro cell line screen (SRB), Breast Cancer NCI/ADR-RES; type: cell-based
Experimental: as §1
Antitumor agents with tumor-specific selectivity are highly desired, in order to reduce the incidence of non-selective cytotoxicity to patients. […] This is of special importance since this NCI/ADR-RES cell line is resistant to many currently used antitumor agents such as adriamycin, taxol, and others.

[3] = system: RPMI-8226; test: NCI in vitro cell line screen (SRB), Leukemia RPMI-8226; type: cell-based
Experimental: as §1

[4] = system: pGL3 Control; test: luciferase expression from control plasmid pGL3 Control; type: cell-based, human
Experimental: The chemical structures of active compounds 1 and 2 are shown above. Compound 2 is the known compound manassantin B and 1 is a novel compound of the present invention. […] Similar results are obtained from separate experiments. The IC50 is 3 nM for 2 and 30 nM for 1. Complete inhibition is observed at 10 nM for 2 and 100 nM for 1.

[5] = system: RXF 393; test: NCI in vitro cell line screen (SRB), Renal Cancer RXF 393; type: cell-based
Experimental: as §1

[6] = Homo sapiens, read-out: LC50 (the source's name)
[7] = NCI/ADR-RES, Log10 Concentration −4.0 Molar
[8] = NCI/ADR-RES, Log10 Concentration −5.0 Molar
[9] = NCI/ADR-RES, Log10 Concentration −6.0 Molar
[10] = NCI/ADR-RES, Log10 Concentration −7.0 Molar
[11] = NCI/ADR-RES, Log10 Concentration −8.0 Molar

SMILES: COc1ccc([C@@H](O)[C@@H](C)Oc2ccc([C@H]3O[C@H](c4ccc(O[C@H](C)[C@H](O)c5ccc6c(c5)OCO6)c(OC)c4)[C@H](C)[C@H]3C)cc2OC)cc1OC [Compound 2, manassantin B]
- TGI [1]: >1.00E−4 Molar
- GI50 ([1]; Homo sapiens): 13.2 µM
- CC50 [1, 6]: > 100 µM
- Mean Optical Densities ([1]; Log10 Concentration −4.0 Molar): 1.223
- Percent Growth ([1]; Log10 Concentration −4.0 Molar): 14%
- Mean Optical Densities ([1]; Log10 Concentration −5.0 Molar): 1.343
- Percent Growth ([1]; Log10 Concentration −5.0 Molar): 55%
- Mean Optical Densities ([1]; Log10 Concentration −6.0 Molar): 1.419
- Percent Growth ([1]; Log10 Concentration −6.0 Molar): 80%
- Mean Optical Densities ([1]; Log10 Concentration −7.0 Molar): 1.433
- Percent Growth ([1]; Log10 Concentration −7.0 Molar): 85%
- Mean Optical Densities ([1]; Log10 Concentration −8.0 Molar): 1.414
- Percent Growth ([1]; Log10 Concentration −8.0 Molar): 79%
- inhibition of the NCI/ADR-RES breast tumor cell line [2]: potently inhibits
- GI50 ([2]; Homo sapiens, NCI/ADR-RES): 0.107 µM
- CC50 ([2]; Homo sapiens, NCI/ADR-RES, read-out: LC50 (the source's name)): > 100 µM
- TGI ([2]; NCI/ADR-RES): >1.00E−4 Molar
- Mean Optical Densities [2, 7]: 0.982
- Percent Growth [2, 7]: 5%
- Mean Optical Densities [2, 8]: 1.133
- Percent Growth [2, 8]: 20%
- Mean Optical Densities [2, 9]: 1.389
- Percent Growth [2, 9]: 45%
- Mean Optical Densities [2, 10]: 1.445
- Percent Growth [2, 10]: 50%
- Mean Optical Densities [2, 11]: 1.518
- Percent Growth [2, 11]: 57%
- TGI [3]: 1.45E−5 Molar
- GI50 ([3]; Homo sapiens): 0.337 µM
- Mean Optical Densities ([3]; Log10 Concentration −4.0 Molar): 0.213
- Percent Growth ([3]; Log10 Concentration −4.0 Molar): −33%
- Mean Optical Densities ([3]; Log10 Concentration −5.0 Molar): 0.356
- Percent Growth ([3]; Log10 Concentration −5.0 Molar): 6%
- Mean Optical Densities ([3]; Log10 Concentration −6.0 Molar): 0.532
- Percent Growth ([3]; Log10 Concentration −6.0 Molar): 34%
- Mean Optical Densities ([3]; Log10 Concentration −7.0 Molar): 0.737
- Percent Growth ([3]; Log10 Concentration −7.0 Molar): 67%
- Mean Optical Densities ([3]; Log10 Concentration −8.0 Molar): 0.766
- Percent Growth ([3]; Log10 Concentration −8.0 Molar): 72%
- luciferase expression from the pGL3-Control plasmid ([4]; 1,10-phenanthroline experiment (FIG. 5)): Neither compound exerts significant effect
- luciferase expression from the control plasmid (pGL3 Control) ([4]; hypoxia experiment (FIG. 3)): No statistically significant difference
- TGI [5]: >1.00E−4 Molar
- GI50 ([5]; Homo sapiens): > 100 µM
- CC50 [5, 6]: > 100 µM
- Mean Optical Densities ([5]; Log10 Concentration −4.0 Molar): 0.930
- Percent Growth ([5]; Log10 Concentration −4.0 Molar): 53%
- Mean Optical Densities ([5]; Log10 Concentration −5.0 Molar): 0.993
- Percent Growth ([5]; Log10 Concentration −5.0 Molar): 62%
- Mean Optical Densities ([5]; Log10 Concentration −6.0 Molar): 1.170
- Percent Growth ([5]; Log10 Concentration −6.0 Molar): 85%
- Mean Optical Densities ([5]; Log10 Concentration −7.0 Molar): 1.267
- Percent Growth ([5]; Log10 Concentration −7.0 Molar): 98%
- Mean Optical Densities ([5]; Log10 Concentration −8.0 Molar): 1.226
- Percent Growth ([5]; Log10 Concentration −8.0 Molar): 92%

From US20090137664A1, “SAURURUS CERNUUS COMPOUNDS THAT INHIBIT CELLULAR RESPONSES TO HYPOXIA” (priority 2003, published 2009)
